{
  "source": "paper PMC7363588",
  "about": "“Mapping of the FGF14:Nav1.6 complex interface reveals FLPK as a functionally active peptide modulating excitability” (Physiological Reports, 2020)",
  "target": "T1, FGF14^V160A (Homo sapiens, UniProt Q92915, V155A)",
  "T1 construct": "aa 64–252); 6X His (N); made in house; host or cells: E. coli BL21 (DE3) pLys",
  "T1 sequence (Q92915 64-252 isoform Q92915-2 V160A)": "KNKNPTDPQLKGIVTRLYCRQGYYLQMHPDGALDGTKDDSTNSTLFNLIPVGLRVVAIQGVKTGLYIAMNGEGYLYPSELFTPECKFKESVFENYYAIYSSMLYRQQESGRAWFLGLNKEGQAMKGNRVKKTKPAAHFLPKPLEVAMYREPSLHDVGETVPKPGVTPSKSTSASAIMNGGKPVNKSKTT",
  "experiment": "SPR binding to FGF14^V160A",
  "source_text": "Plasmids used in this study derived from the following clones: human FGF14‐1b isoform (accession number: NM_175929.2) and human Nav1.6 (accession number: NM_014191.3). The CLuc‐FGF14, CD4‐Nav1.6‐NLuc, constructs and the pcDNA3.1 vector (Invitrogen, Carlsbad, CA) were engineered and characterized as previously described (Goetz et al., 2009; Shavkunov et al., 2012,2013,2015; Ali et al., 2016, 2018; Wadsworth et al., 2019). The plasmid pGL3 expressing full length Firefly (Photinus pyralis) luciferase was a gift from Dr. P. Sarkar (Department of Neurology, UTMB). For protein purification studies, cDNAs encoding FGF14‐1b (accession number NP_787125; aa 64–252) or the C‐terminal tail of Nav1.6 (accession number #NP_001171455; aa 1756–1939) were subcloned into suitable pET bacterial expression vectors (pET28a‐FGF14; pET30a‐Nav1.6) with a 6X His‐tag at the N‐terminal site; these plasmids were a gift of Dr. Moosa Mohammadi (NYU, Langone Medical Center). The mutation coding for FGF14^V160A was generated by site‐directed mutagenesis and PCR using FGF14‐1b as a template described previously (Ali et al., 2016). For electrophysiological studies FGF14‐GFP (human) and FGF14‐ΔNT‐GFP (human) were cloned into the GFP plasmid (pQBI‐fC2; Quantum Biotechnology Inc., Montreal, Canada) as previously described.\nUpon transformation with corresponding cDNA clones, the recombinant proteins FGF14, FGF14^V160A and Nav1.6 C‐terminal tail were expressed in E. coli BL21 (DE3) pLys (Invitrogen) after induction with 0.1 mM isopropyl thio‐β‐D‐galacto‐pyranoside (IPTG) for 24 hr at 16°C. […]\nSPR experiments were performed on a Biacore T100 (GE Healthcare Bio‐Sciences, Pittsburgh, PA), and the interaction of FGF14 and Nav1.6 channel toward FLPK, PLEV and EYYV (1–100 µM) were studied at 25°C. […] Maximal equilibrium responses were plotted against peptide concentrations and association rate constant (kon), dissociation rate constatnt (koff) were determined. […]",
  "key": {"[1]": {"conditions": "CM5, 25°C, 1–100 µM, RU 18,000, N.M. = not measurable"}},
  "note": "Entries after “also recorded” stand apart in the source; their conditions may differ. Peptide text beside a SMILES is read from it.",
  "data": [
    {"smiles": "CC(=O)N[C@@H](Cc1ccccc1)C(=O)N[C@@H](CC(C)C)C(=O)N1CCC[C@H]1C(=O)N[C@@H](CCCCN)C(N)=O", "note": "[FLPK] (Ac-FLPK-NH2)", "values": [
      {"measurement": "koff, dissociation rate constant", "setting": "[1]", "result": "N.M."},
      {"measurement": "kon, association rate constant", "setting": "[1]", "result": "N.M."},
      {"measurement": "binding to FGF14^V160A", "setting": "peptide 1–100 µM", "result": "no measurable binding; also recorded: no binding of FLPK was detected"}
    ]}
  ]
}
